# Values quoted from earlier work as cited in publication PMC9901186 (bioRxiv, 2023).
# System: NOD1
compound,measurement,value
CCCCCCCCCCCC(=O)N[C@H](CCC(=O)NC(CCCC(N)C(=O)O)C(=O)O)C(=O)O (stereo partly shown) [C12-iE-DAP],greater activation of NOD1-dependent NF-κB reporter relative to iE-DAP,~ 100 fold
